Values quoted from earlier work, collected in patent US20140171372A1, “Treatments for Alzheimer's disease” (priority 2012, published 2014).

Legend:
[1] = treatment of spinal injury, Parkinson disease and AD
[2] = radiolabeled, injected systemically into animals
AD patients = conditions: intracerebroventricular injection, limited number of AD patients

Row | Compound | neuroprotective effect in cultured cells (cultured cells) | protective effects relative to GM1 (cultured cells; cultured cells and animal models, compared with GM1) | neuroprotective effect in animal models (animal models) | tolerability in Human [1] | distribution after systemic injection [2] | clinical improvement in AD patients (AD patients) | outcome of clinical trial in AD (patients)
1 | CCCCCCCCCCCCC/C=C/C(O)C(COC1OC(CO)C(OC2OC(CO)C(OC3OC(CO)C(O)C(OC4OC(CO)C(O)C(O)C4O)C3NC(C)=O)C(OC3(C(=O)O)CC(O)C(NC(C)=O)C(C(O)C(O)CO)O3)C2O)C(O)C1O)NC(=O)C(Cl)Cl (stereo not drawn) [LIGA20] | neuroprotective | more potent protective effects than GM1 | neuroprotective | – | – | – | –
2 | GM1 | neuroprotective | – | neuroprotective | well tolerated | reach neuronal synapses and neuromuscular junctions | some degree of improvement | –
3 | Solanezumab | – | – | – | – | – | – | failed
